According to patent US10351613B2, “Polypeptide for inhibition of tumor” (G-Bio Pharma Tech Co., Ltd., priority 2015, dated 2019):
Values after ≈ are worked out from the molar mass of the structure shown. Residues, ends and D or L forms follow the SMILES beside them.

Key:
[1] = test system: Human Umbilical Vein Endothelial Cell (HUVEC); assay type: cell-based; conditions: for biological activity compared with P2: inhibition of HUVEC and HepG2; for Cell Survival (%) at a polypeptide concentration of 120 μM: 6 h
Method: 20 cm umbilical cord adjacent to fetus was taken, cleaned by washing, ligated at both ends, placed into 150 ml preservation solutions for umbilical cord, and stored in a 4° C. refrigerator for digestion for 6 hours. The umbilical cord was inspected to remove the damaged portion. The umbilical vein was thoroughly cleaned by washing and then 10 ml collagenase solution was injected. Then the umbilical vein was transferred to a 37° C. incubator for digestion for 15 minutes. The umbilical cord was removed and the digested solution was recovered. The digested solution was washed by PBS and centrifuged. After centrifugation, the cells were culture by re-suspension.
(§1) Inhibition of cell growth was detected by a MTT method, which is based on the principle that succinate dehydrogenase in the mitochondria of the live cells could reduce the exogenous MTT (3-(4,5-dimethyl-2-thiazolyl)-2,5-diphenyl-tetrazolium bromide) to a […] Formazan which is a blue-violet crystal, and precipitates in the cells, while the death cells could not reduce MTT. DMSO could dissolve Formazan in the cells. Absorbance value of the solution was determined at 490/570 nm by microplate reader, which could indirectly indicate the amount of the live cells. The amount of the crystal from MTT is proportional to the amount of the cells within a certain range of cell number. The supernate from the HUVEC or tumor cells in exponential phase was removed and the cells were washed by PBS once. 1 ml 0.25% trypsin (4° C.) was added for digestion at 37° C. for 2 min. Then the supernate was added for neutralization and the cells were dispersed to form a suspension and the suspension was centrifuged at 1000 rpm for 3 min. The supernate was removed and 5 ml culture mediums were added for resuspension. Cells were inoculated in a 48-well plate by 500 ul/well at the concentration of 3×10^4/ml and then incubated under 5% CO2, 37° C. for 24 hours. The supernate was removed and a culture medium containing polypeptide (Zn^2+ in the culture medium was present at the concentration of 17.39 μmol/L) was added for further incubation for 48 hours. Supernate in each well was carefully removed. The well was gently washed by PBS once in an amount of 450 μl/well. 450 μl MTT culture mediums were added into each well for further cultivation for 4 hours. The supernate was carefully discarded. DMSO was added in an amount of 450 μl/well and then the plate was placed in a shaking bed for oscillation for 10 min in dark. 150 μl supernates were transferred to a 96-well ELISA plate and absorbance value of each well was detected at 490 nm and 570 nm by the microplate reader.

tumor cell HepG2 = assay type: cell-based
Method: as §1

`CC[C@H](C)[C@H](NC(=O)CNC(=O)[C@H](CCCNC(=N)N)NC(=O)[C@H](CCSC)NC(=O)CNC(=O)CNC(=O)[C@H](CO)NC(=O)[C@H](CC(C)C)NC(=O)[C@H](CC(N)=O)NC(=O)[C@H](CO)NC(=O)[C@H](CC(N)=O)NC(=O)[C@H](CC(C)C)NC(=O)[C@H](C)NC(=O)[C@@H](NC(=O)[C@H](CC(C)C)NC(=O)[C@H](Cc1c[nH]cn1)NC(=O)[C@H](CC(C)C)NC(=O)[C@@H](NC(=O)[C@@H]1CCCN1C(=O)[C@H](CCC(N)=O)NC(=O)[C@H](Cc1ccccc1)NC(=O)[C@H](CC(=O)O)NC(=O)[C@H](CCCNC(=N)N)NC(=O)[C@H](Cc1c[nH]cn1)NC(=O)[C@H](CO)NC(=O)[C@H](Cc1c[nH]cn1)NC(C)=O)C(C)C)C(C)C)C(=O)N[C@@H](CCCNC(=N)N)C(=O)NCC(=O)N[C@@H](C)C(=O)N[C@@H](CC(=O)O)C(N)=O` [Polypeptide P2N18] (Ac-HSHRDFQPVLHLVALNSNLSGGMRGIRGAD-NH2) was tested. Which “IC50 (ug/ml) HUVEC” value [1] did it give?
The value was 1080.8 µg/mL (≈ 328 µM).

And the “Cell Survival (%), 1 mg/ml of polypeptide, HUVEC” value [1]?
The value was 91%.

What about the “biological activity compared with P2” value [1] of the same molecule?
The value was “lower biological activity than P2”.

And the “IC50 (ug/ml) HepG2” value (tumor cell HepG2)?
Its value is 1387.0 µg/mL (≈ 421 µM).

And the “Cell Survival (%), 1 mg/ml of polypeptide, HepG2” value (tumor cell HepG2)?
Its value is 85%.

Which results are given for `CC[C@H](C)[C@H](NC(=O)CNC(=O)[C@H](CCCNC(=N)N)NC(=O)[C@H](CCSC)NC(=O)CNC(=O)CNC(=O)[C@H](CO)NC(=O)[C@H](CC(C)C)NC(=O)[C@H](CO)NC(=O)[C@H](CO)NC(=O)[C@H](CC(N)=O)NC(=O)[C@H](CC(C)C)NC(=O)[C@H](C)NC(=O)[C@@H](NC(=O)[C@H](CC(C)C)NC(=O)[C@H](Cc1c[nH]cn1)NC(=O)[C@H](CC(C)C)NC(=O)[C@@H](NC(=O)[C@@H]1CCCN1C(=O)[C@H](CCC(N)=O)NC(=O)[C@H](Cc1ccccc1)NC(=O)[C@H](CC(=O)O)NC(=O)[C@H](CCCNC(=N)N)NC(=O)[C@H](Cc1c[nH]cn1)NC(=O)[C@H](CO)NC(=O)[C@H](Cc1c[nH]cn1)NC(C)=O)C(C)C)C(C)C)C(=O)N[C@@H](CCCNC(=N)N)C(=O)NCC(=O)N[C@@H](C)C(=O)N[C@@H](CC(=O)O)C(N)=O` [Polypeptide P2S18] (Ac-HSHRDFQPVLHLVALNSSLSGGMRGIRGAD-NH2)?
Cell Survival (%), 1 mg/ml of polypeptide, HUVEC [1]: 73%; biological activity compared with P2 [1]: lower biological activity than P2; Cell Survival (%), 1 mg/ml of polypeptide, HepG2 (tumor cell HepG2): 70%

`CC(=O)N[C@@H](Cc1c[nH]cn1)C(=O)N[C@H](C(=O)N[C@@H](Cc1c[nH]cn1)C(=O)N[C@@H](CCCNC(=N)N)C(=O)N[C@@H](CC(=O)O)C(=O)N[C@@H](Cc1ccccc1)C(=O)N[C@@H](CCC(N)=O)C(=O)N1CCC[C@H]1C(=O)N[C@H](C(=O)N[C@@H](CC(C)C)C(=O)N[C@@H](Cc1c[nH]cn1)C(=O)N[C@@H](CC(C)C)C(=O)N[C@H](C(=O)N[C@@H](C)C(=O)N[C@@H](CC(C)C)C(N)=O)C(C)C)C(C)C)[C@@H](C)O` [Polypeptide P2T2-15, Ac-HTHRDFQPVLHLVAL-NH2] (Ac-HTHRDFQPVLHLVAL-NH2) was tested. Which “Cell Survival (%) at a polypeptide concentration of 120 μM” value (shortened to “Cell Survival (%) … of 120 μM”) [1] did it give?
Its value is 95%.

How did the “Cell Survival (%) … of 120 μM” value [1] turn out when `CC(=O)N[C@@H](Cc1c[nH]cn1)C(=O)N[C@H](C(=O)N[C@@H](Cc1c[nH]cn1)C(=O)N[C@@H](CCCNC(=N)N)C(=O)N[C@@H](CC(=O)O)C(=O)N[C@@H](Cc1ccccc1)C(=O)N[C@@H](CCC(N)=O)C(=O)N1CCC[C@H]1C(=O)N[C@H](C(=O)N[C@@H](CC(C)C)C(=O)N[C@@H](Cc1c[nH]cn1)C(=O)N[C@@H](CC(C)C)C(=O)N[C@H](C(=O)N[C@@H](C)C(=O)N[C@@H](CC(C)C)C(=O)N[C@@H](CC(N)=O)C(=O)N[C@@H](CO)C(=O)N[C@@H](CO)C(=O)N[C@@H](CC(C)C)C(=O)N[C@@H](CO)C(N)=O)C(C)C)C(C)C)[C@@H](C)O` [Polypeptide P2T2S18-20] (Ac-HTHRDFQPVLHLVALNSSLS-NH2) was run?
Its value is 52%.

For `CSCC[C@H](NC(=O)CNC(=O)CNC(=O)[C@H](CO)NC(=O)[C@H](CC(C)C)NC(=O)[C@H](CO)NC(=O)[C@H](CO)NC(=O)[C@H](CC(N)=O)NC(=O)[C@H](CC(C)C)NC(=O)[C@H](C)NC(=O)[C@@H](NC(=O)[C@H](CC(C)C)NC(=O)[C@H](Cc1c[nH]cn1)NC(=O)[C@H](CC(C)C)NC(=O)[C@@H](NC(=O)[C@@H]1CCCN1C(=O)[C@H](CCC(N)=O)NC(=O)[C@H](Cc1ccccc1)NC(=O)[C@H](CC(=O)O)NC(=O)[C@H](CCCNC(=N)N)NC(=O)[C@H](Cc1c[nH]cn1)NC(=O)[C@@H](NC(=O)[C@H](Cc1c[nH]cn1)NC(C)=O)[C@@H](C)O)C(C)C)C(C)C)C(=O)N[C@@H](CCCNC(=N)N)C(=O)NCC(N)=O` [Polypeptide P2T2S18-25] (Ac-HTHRDFQPVLHLVALNSSLSGGMRG-NH2), which “Cell Survival (%) … of 120 μM” value [1] is on record?
Its value is 31%.

For `CC[C@H](C)[C@H](NC(=O)CNC(=O)[C@H](CCCNC(=N)N)NC(=O)[C@H](CCSC)NC(=O)CNC(=O)CNC(=O)[C@H](CO)NC(=O)[C@H](CC(C)C)NC(=O)[C@H](CO)NC(=O)[C@H](CO)NC(=O)[C@H](CC(N)=O)NC(=O)[C@H](CC(C)C)NC(=O)[C@H](C)NC(=O)[C@@H](NC(=O)[C@H](CC(C)C)NC(=O)[C@H](Cc1c[nH]cn1)NC(=O)[C@H](CC(C)C)NC(=O)[C@@H](NC(=O)[C@@H]1CCCN1C(=O)[C@H](CCC(N)=O)NC(=O)[C@H](Cc1ccccc1)NC(=O)[C@H](CC(=O)O)NC(=O)[C@H](CCCNC(=N)N)NC(=O)[C@H](Cc1c[nH]cn1)NC(=O)[C@@H](NC(=O)[C@H](Cc1c[nH]cn1)NC(C)=O)[C@@H](C)O)C(C)C)C(C)C)C(=O)N[C@@H](CCCNC(=N)N)C(=O)NCC(=O)N[C@@H](C)C(=O)N[C@@H](CC(=O)O)C(=O)N[C@@H](Cc1ccccc1)C(=O)N[C@@H](CCC(N)=O)C(=O)N[C@@H](CS)C(=O)N[C@@H](Cc1ccccc1)C(=O)N[C@@H](CCC(N)=O)C(N)=O` [Polypeptide P2T2S18-35] (Ac-HTHRDFQPVLHLVALNSSLSGGMRGIRGADFQCFQ-NH2), which “Cell Survival (%) … of 120 μM” value [1] is on record?
Its value is 15%.

For `CC[C@H](C)[C@H](NC(=O)CNC(=O)[C@H](CCCNC(=N)N)NC(=O)[C@H](CCSC)NC(=O)CNC(=O)CNC(=O)[C@H](CO)NC(=O)[C@H](CC(C)C)NC(=O)[C@H](CO)NC(=O)[C@H](CO)NC(=O)[C@H](CC(N)=O)NC(=O)[C@H](CC(C)C)NC(=O)[C@H](C)NC(=O)[C@@H](NC(=O)[C@H](CC(C)C)NC(=O)[C@H](Cc1c[nH]cn1)NC(=O)[C@H](CC(C)C)NC(=O)[C@@H](NC(=O)[C@@H]1CCCN1C(=O)[C@H](CCC(N)=O)NC(=O)[C@H](Cc1ccccc1)NC(=O)[C@H](CC(=O)O)NC(=O)[C@H](CCCNC(=N)N)NC(=O)[C@H](Cc1c[nH]cn1)NC(=O)[C@@H](NC(=O)[C@H](Cc1c[nH]cn1)NC(C)=O)[C@@H](C)O)C(C)C)C(C)C)C(=O)N[C@@H](CCCNC(=N)N)C(=O)NCC(=O)N[C@@H](C)C(=O)N[C@@H](CC(=O)O)C(=O)N[C@@H](Cc1ccccc1)C(=O)N[C@@H](CCC(N)=O)C(=O)N[C@@H](CS)C(=O)N[C@@H](Cc1ccccc1)C(=O)N[C@@H](CCC(N)=O)C(=O)N[C@@H](CCC(N)=O)C(=O)N[C@@H](C)C(=O)N[C@@H](CCCNC(=N)N)C(=O)N[C@@H](C)C(=O)N[C@H](C(N)=O)C(C)C` [Polypeptide P2T2S18-40] (Ac-HTHRDFQPVLHLVALNSSLSGGMRGIRGADFQCFQQARAV-NH2), which “Cell Survival (%) … of 120 μM” value [1] is on record?
Its value is 49%.

Which “biological activity compared with P2” value [1] does the source give for “Ac-HTHRDFQPVLHLVALNSSLSGGMRGIRGA-NH2 [Polypeptide P2T2S18-29]” here?
Its value is “siginficalty higher than P2”.

Which “Cell Survival (%) … of 120 μM” value [1] does the source give for “Ac-HTHRDFQPVLHLVALNSSLSGGMRGIRGADFQCFQQARAVGLAGT-NH2 [Polypeptide P2T2S18-45]” here?
The value was 80%.
